# Activity calls are given as the source filed them. No cut-off for these calls is given here.
# Key:
# [1] = target: T1, Inhibitor of nuclear factor kappa-B kinase subunit beta (Homo sapiens, UniProt O14920)
# T1 sequence (O14920 whole entry): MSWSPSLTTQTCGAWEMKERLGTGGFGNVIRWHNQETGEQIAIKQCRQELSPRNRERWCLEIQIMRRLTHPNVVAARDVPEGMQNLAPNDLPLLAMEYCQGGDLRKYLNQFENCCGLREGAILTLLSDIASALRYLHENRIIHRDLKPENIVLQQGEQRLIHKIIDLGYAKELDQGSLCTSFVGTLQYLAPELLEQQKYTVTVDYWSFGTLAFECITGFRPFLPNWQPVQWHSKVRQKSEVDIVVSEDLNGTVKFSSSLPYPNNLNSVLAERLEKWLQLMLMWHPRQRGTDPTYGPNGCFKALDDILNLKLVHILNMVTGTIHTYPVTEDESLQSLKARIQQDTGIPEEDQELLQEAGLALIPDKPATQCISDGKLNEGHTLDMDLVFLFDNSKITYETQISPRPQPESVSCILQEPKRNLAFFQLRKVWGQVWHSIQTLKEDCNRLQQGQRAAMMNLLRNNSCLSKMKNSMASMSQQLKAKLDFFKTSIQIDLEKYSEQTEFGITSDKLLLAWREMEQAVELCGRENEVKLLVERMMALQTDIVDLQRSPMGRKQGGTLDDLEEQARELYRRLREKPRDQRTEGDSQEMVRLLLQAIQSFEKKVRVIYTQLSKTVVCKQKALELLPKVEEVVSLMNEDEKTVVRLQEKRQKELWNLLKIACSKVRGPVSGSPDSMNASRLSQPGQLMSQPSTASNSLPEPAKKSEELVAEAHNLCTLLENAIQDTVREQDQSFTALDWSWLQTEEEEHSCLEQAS
# Description: Inhibition of human recombinant GST-IKKbeta by TR-FRET assay
# [2] = target: T2, Inhibitor of nuclear factor kappa-B kinase subunit epsilon (Homo sapiens, UniProt Q14164)
# T2 sequence (Q14164 whole entry): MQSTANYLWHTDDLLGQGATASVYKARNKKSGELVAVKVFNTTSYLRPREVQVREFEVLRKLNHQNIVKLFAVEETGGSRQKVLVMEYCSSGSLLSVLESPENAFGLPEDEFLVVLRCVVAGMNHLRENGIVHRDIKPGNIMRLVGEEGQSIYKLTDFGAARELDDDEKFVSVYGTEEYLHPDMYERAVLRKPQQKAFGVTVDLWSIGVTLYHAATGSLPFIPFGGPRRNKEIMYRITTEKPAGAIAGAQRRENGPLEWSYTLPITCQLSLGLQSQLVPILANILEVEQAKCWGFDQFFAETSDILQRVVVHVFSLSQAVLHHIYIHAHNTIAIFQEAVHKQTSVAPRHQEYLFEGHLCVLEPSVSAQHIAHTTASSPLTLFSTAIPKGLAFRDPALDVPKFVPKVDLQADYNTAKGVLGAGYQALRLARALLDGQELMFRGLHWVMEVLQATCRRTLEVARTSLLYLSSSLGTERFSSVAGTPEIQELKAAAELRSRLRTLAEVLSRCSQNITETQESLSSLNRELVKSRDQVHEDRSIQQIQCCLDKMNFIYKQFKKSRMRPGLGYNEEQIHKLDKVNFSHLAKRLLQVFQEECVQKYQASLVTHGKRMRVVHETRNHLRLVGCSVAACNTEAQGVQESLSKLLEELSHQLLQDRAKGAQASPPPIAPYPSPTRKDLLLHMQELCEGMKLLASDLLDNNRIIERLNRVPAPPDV
# Description: Inhibition of human recombinant FLAG-IKKepsilon by TR-FRET assay
# PBMC = experiment: Inhibition of LPS-stimulated TNFalpha release in PBMC; format: functional, cell-based; settings: Homo sapiens
# [3] = Inhibition of LPS-stimulated IL6 release in PBMC; format: functional; settings: Homo sapiens
# Fibroblast = experiment: Inhibition of NF-kappaB translocation in TNF-alpha-induced human lung fibroblast cells; format: functional, cell-based
SMILES,IC50 [1],IC50 [2],IC50 (PBMC),IC50 [3],Activity (Fibroblast)
CS(=O)(=O)c1ccc(-c2cc(C(N)=O)c(N)c(-c3ccc(S(N)(=O)=O)cc3)c2)cc1,0.158 µM,,,,
CNC(=O)c1cc(-c2ccc(F)cc2)cc(-c2ccc(S(C)(=O)=O)cc2)c1N,> 15.8 µM,,,,
NC(=O)c1cc(-c2ccc(F)cc2)ccc1N,> 15.8 µM,> 15.8 µM,,,
CS(=O)(=O)Nc1ccc(-c2cc(-c3ccccc3)cc(C(N)=O)c2N)cc1 [GSK-586581A],1.58 µM,> 15.8 µM,,,
NC(=O)c1cc(-c2ccccc2)ccc1N,15.8 µM,> 15.8 µM,,,
NC(=O)c1cc(-c2ccccc2)cc(-c2ccc(S(N)(=O)=O)cc2)c1N,0.251 µM,> 15.8 µM,,,
COc1c(C(N)=O)cc(-c2ccccc2)cc1-c1ccncc1,> 15.8 µM,,,,
NC(=O)c1cc(-c2ccccc2)cc(-c2ccc(S(=O)(=O)NNCCCN3CCOCC3)cc2)c1N,0.316 µM,> 15.8 µM,,,
NC(=O)c1cc(-c2ccccc2)cc(-c2cccc(S(N)(=O)=O)c2)c1N,7.94 µM,> 15.8 µM,,,
COCCCNNS(=O)(=O)c1ccc(-c2cc(-c3ccccc3)cc(C(N)=O)c2N)cc1,0.251 µM,> 15.8 µM,,,
NC(=O)c1cc(-c2ccc(Cl)cc2)cc(-c2ccc(S(N)(=O)=O)cc2)c1O,1.58 µM,> 15.8 µM,,,
CNC(=O)c1cc(-c2ccc(F)cc2)cc(-c2ccc(S(=O)(=O)N3CCCC3)cc2)c1N [GSK-635416A],> 15.8 µM,,,,
NC(=O)c1cc(-c2ccc(F)cc2)cc(-c2ccncc2)c1N [GSK-620503A],1.58 µM,> 15.8 µM,,,
COc1c(C(N)=O)cc(-c2ccc(Cl)cc2)cc1-c1ccc(S(N)(=O)=O)cc1 [GSK-711701A],> 15.8 µM,,,,
COc1c(C(N)=O)cc(-c2ccncc2)cc1-c1ccccc1,> 15.8 µM,,,,
NC(=O)c1cc(-c2ccccc2)cc(-c2ccc(S(=O)(=O)NNC3CC3)cc2)c1N,0.316 µM,> 15.8 µM,,,
CN(C)CCCNNS(=O)(=O)c1ccc(-c2cc(-c3ccccc3)cc(C(N)=O)c2N)cc1,0.316 µM,> 15.8 µM,,,

SMILES,IC50 [1],IC50 [2],IC50 (PBMC),IC50 [3],Activity (Fibroblast)
CS(=O)(=O)Nc1cccc(-c2cc(-c3ccccc3)cc(C(N)=O)c2N)c1,7.94 µM,,,,
NC(=O)c1cc(-c2ccc(F)cc2)cc(-c2ccc(S(=O)(=O)N3CCCC3)cc2)c1N,0.631 µM,> 15.8 µM,,,
COc1ccc(-c2ccncc2)cc1C(N)=O [GSK-605714A],> 15.8 µM,,,,
NC(=O)c1cc(-c2ccc(F)cc2)cc(-c2ccc(S(N)(=O)=O)cc2)c1N,0.2 µM,> 15.8 µM,,,
CS(=O)(=O)Nc1ccc(-c2cc(-c3ccc(Cl)cc3)cc(C(N)=O)c2N)cc1,1.58 µM,> 15.8 µM,,,
NC(=O)c1cc(-c2ccc(Cl)cc2)cc(-c2ccc(S(N)(=O)=O)cc2)c1N,0.1 µM,> 15.8 µM,0.794 µM,2 µM,Active
NC(=O)c1cc(-c2ccncc2)cc(-c2ccc(S(N)(=O)=O)cc2)c1N,0.251 µM,1.58 µM,,,
CNS(=O)(=O)c1ccc(-c2cc(-c3ccccc3)cc(C(N)=O)c2O)cc1,1 µM,> 15.8 µM,,,
NC(=O)c1cc(-c2ccccc2)cc(-c2ccc(S(=O)(=O)NNCCN3CCCC3)cc2)c1N,0.251 µM,> 15.8 µM,,,
NC(=O)c1cc(-c2ccccc2)cc(-c2ccc(CS(N)(=O)=O)cc2)c1N,3.98 µM,> 15.8 µM,,,
CS(=O)(=O)c1ccc(-c2cc(C(N)=O)c(N)c(-c3ccc(S(=O)(=O)N4CCCC4)cc3)c2)cc1,0.398 µM,,,,
CN(C)c1cccc(-c2cc(-c3ccccc3)cc(C(N)=O)c2N)c1,> 15.8 µM,> 15.8 µM,,,
CN(C)S(=O)(=O)c1ccc(-c2cc(-c3ccncc3)cc(C(N)=O)c2O)cc1,7.94 µM,> 15.8 µM,,,
NCCNNS(=O)(=O)c1ccc(-c2cc(-c3ccccc3)cc(C(N)=O)c2N)cc1,0.158 µM,> 15.8 µM,,,
COc1cc2ncn(-c3cc(OCc4ccccc4S(C)(=O)=O)c(C#N)s3)c2cc1OC [GSK-319347A],> 15.8 µM,,,,
NC(=O)c1cc(-c2ccncc2)cc(-c2ccccc2)c1N [GSK-625137A],3.98 µM,3.98 µM,,,
